System: Round-Up Ready crops
Test: Field tests on use of Glyphosate on Round-Up Ready crops
Format: in vivo
Settings: Glyphosate-tolerant (Round-Up Ready) crops
Source text: This adverse effect is referred to as the Glyphosate's phytotoxicity in present application.

O=C(O)CNCP(=O)(O)O [Glyphosate]
effect on the growth of Round-Up Ready crops (Glyphosate's phytotoxicity): substantial adverse effect to the growth

Reference: patent US8153559B2, “Certain plant growth regulators (PGRs) as safener to Glyphosate for application to Glyphosate-tolerant crops” (CP Bio, Inc., priority 2004, dated 2012)
